{
  "source": "paper PMC8050608",
  "about": "(The Korean Journal of Physiology & Pharmacology : …, 2021)",
  "key": {"ORAI1 [1]": {"target": "T1, ORAI1 (Homo sapiens, UniProt Q96D31)", "T1 sequence (Q13586 23-685)": "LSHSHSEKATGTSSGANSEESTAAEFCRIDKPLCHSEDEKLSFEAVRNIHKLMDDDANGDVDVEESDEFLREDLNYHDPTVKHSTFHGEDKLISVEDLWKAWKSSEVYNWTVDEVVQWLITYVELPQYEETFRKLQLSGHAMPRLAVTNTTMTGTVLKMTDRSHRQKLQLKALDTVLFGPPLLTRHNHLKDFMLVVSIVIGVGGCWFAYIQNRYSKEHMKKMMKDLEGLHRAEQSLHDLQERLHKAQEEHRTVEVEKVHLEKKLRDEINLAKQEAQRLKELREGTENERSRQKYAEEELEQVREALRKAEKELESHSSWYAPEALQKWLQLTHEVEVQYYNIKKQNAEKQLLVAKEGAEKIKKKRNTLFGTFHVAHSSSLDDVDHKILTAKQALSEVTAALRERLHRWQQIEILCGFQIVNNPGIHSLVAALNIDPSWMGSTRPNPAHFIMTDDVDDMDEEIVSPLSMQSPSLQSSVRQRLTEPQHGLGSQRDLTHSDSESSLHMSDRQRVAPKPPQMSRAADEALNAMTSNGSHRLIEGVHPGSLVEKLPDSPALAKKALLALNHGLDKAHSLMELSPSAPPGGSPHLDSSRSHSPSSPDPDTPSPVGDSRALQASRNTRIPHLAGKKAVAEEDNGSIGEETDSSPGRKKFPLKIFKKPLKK", "T1 sequence (Q96D31 whole entry)": "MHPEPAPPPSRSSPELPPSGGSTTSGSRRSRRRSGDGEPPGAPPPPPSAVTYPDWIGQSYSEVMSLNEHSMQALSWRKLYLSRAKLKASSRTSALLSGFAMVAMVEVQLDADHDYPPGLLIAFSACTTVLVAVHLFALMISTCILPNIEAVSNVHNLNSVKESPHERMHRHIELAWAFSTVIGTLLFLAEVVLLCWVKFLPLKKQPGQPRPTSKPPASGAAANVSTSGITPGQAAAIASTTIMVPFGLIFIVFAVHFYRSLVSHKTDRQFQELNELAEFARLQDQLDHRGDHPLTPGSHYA", "type": "cell-based", "conditions": "HEK-293T, read-out: % inhibition at 100 μM"}, "ORAI1 [2]": {"target": "T1, ORAI1", "type": "cell-based", "conditions": "HEK-293T, read-out: % inhibition at 100 μM", "remark": "listed apart in the source"}},
  "note": "Where two headings read alike, the source gives them in different places.",
  "data": [
    {"compound": "COc1ccc([C@H]2OC[C@H]3[C@@H]2CO[C@@H]3c2ccc(OC)c(OC)c2)cc1OC", "note": "[eudesmin]", "values": [
      {"measurement": "inhibition at 100 µM", "setting": "ORAI1 [1]", "value": 24.7, "unit": "%"}
    ]},
    {"compound": "COc1ccc([C@H]2OC[C@H]3[C@@H]2CO[C@@H]3c2cc(OC)c(OC)c(OC)c2)cc1OC", "note": "[magnolin]", "values": [
      {"measurement": "inhibition at 100 µM", "setting": "ORAI1 [2]", "value": 29.7, "unit": "%"}
    ]}
  ]
}
